Dmax and DC50 data for eight molecules are collected here from US12257247B2 (Monte Rosa Therapeutics AG, priority 2023, dated 2025).

Each structure is given as a SMILES string. Like-named read-outs stand apart in the source and are kept apart here.

This experiment addresses T1, VAV1 (Homo sapiens, UniProt P15498+Q96SW2).
T1 construct: A heterozygous VAV1 C-terminal HiBiT knock-in pool was generated at Monte Rosa Therapeutics from a clonal Jurkat cell; endogenous in cells; host or cells: Jurkat clone stably expressing LgBiT, homozygous GSPT1-G575N; heterozygous VAV1-HiBiT knock-in pool
The experiment can be described thus: VAV1 degradation activity, VAV1-HiBiT knock-in Jurkat luminescence assay (Example A, Table 1). The format is cell-based. The conditions noted are these: VAV1-HiBiT knock-in Jurkat cells, luminescence read at 6 and 24 hours after compound addition; for Dmax: Jurkat. In short, it runs like this:
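Jurkat cells carrying VAV1-HiBiT knock-in, plated in RPMI/10% FBS with Endurazine live-cell substrate and pre-incubated ~16 h at 37° C. Compound dosed from 10 μM stock; luminescence read 6 and 24 h later. Response normalised to plate negative/positive controls, EC50 from 3-parameter logistic fit (hillslope 1).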

[1] abbreviates: read-out: VAV1 DC50 (nM), class.

Broadly, the Dmax is the greatest extent of degradation seen. One may read the DC50 as the concentration at which degradation of the target reaches its halfway point. On to `CN1Cc2cc(-c3cccc(C4CCC(=O)NC4=O)c3Cl)ccc2N(Cc2ccn(C)n2)C1=O` (centres unmarked) [Compound 503, 3-(2-chloro-3-(3-methyl-1-((1-methyl-1H-pyrazol-3-yl)methyl)-2-oxo-1,2,3,4-tetrahydroquinazolin-6-yl)phenyl)piperidine-2,6-dione], for which the Dmax (read-out: VAV1 Dmax %) turned out to be 90% and the Dmax (read-out: VAV1 Dmax %, class) is 60 to 90%. Also, the DC50 is, setting by setting: (read-out: VAV1 DC50) 4.73 nM; under setting [1], at most 100 nM.
For `Cn1cnc(CN2C(=O)Cc3cc(-c4cccc(C5CCC(=O)NC5=O)c4Cl)ccc32)c1` (centres unmarked) [Compound 504, 3-(2-chloro-3-(1-((1-methyl-1H-imidazol-4-yl)methyl)-2-oxoindolin-5-yl)phenyl)piperidine-2,6-dione], in that order: 96.7%, over 90%, 5.5 nM and at most 100 nM.
For `O=C1CCC(c2cccc(-c3ccc4c(c3)CC(=O)N4Cc3cocn3)c2Cl)C(=O)N1` (centres unmarked) [Compound 505, 3-(2-chloro-3-(1-(oxazol-4-ylmethyl)-2-oxoindolin-5-yl)phenyl)piperidine-2,6-dione], in that order: 80.7%, 60 to 90%, 86.9 nM and at most 100 nM.
With `O=C1CCC(c2cccc(-c3ccc4c(c3)CC(=O)N4CC3CC3)c2Cl)C(=O)N1` (centres unmarked) [Compound 506, 3-(2-chloro-3-(1-(cyclopropylmethyl)-2-oxoindolin-5-yl)phenyl)piperidine-2,6-dione], the Dmax runs as follows: (read-out: VAV1 Dmax %) 63.7%; (read-out: VAV1 Dmax %, class) 60 to 90%. Moreover, the DC50 (read-out: VAV1 DC50) amounted to 1770 nM and the DC50 under setting [1] was over 1000 nM.
For `Cn1ccc(Cn2c(=O)oc3cc(-c4cccc(C5CCC(=O)NC5=O)c4Cl)ccc32)n1` (centres unmarked) [Compound 507, 3-(2-chloro-3-(3-((1-methyl-1H-pyrazol-3-yl)methyl)-2-oxo-2,3-dihydrobenzo[d]oxazol-6-yl)phenyl)piperidine-2,6-dione], in that order: 91.8%, over 90%, 28.6 nM and at most 100 nM.
Take `Cn1cncc1Cn1ncc2cc(-c3cccc(C4CCC(=O)NC4=O)c3Cl)ccc21` (centres unmarked) [Compound 508, 3-(2-chloro-3-(1-((1-methyl-1H-imidazol-5-yl)methyl)-1H-indazol-5-yl)phenyl)piperidine-2,6-dione]: the Dmax is, setting by setting: (read-out: VAV1 Dmax %) 92%; (read-out: VAV1 Dmax %, class) over 90%. The DC50 is 63.2 nM (read-out: VAV1 DC50) and at most 100 nM under setting [1].
In the same order, the values of `Cn1cccc(N2CCc3cc(-c4cccc(C5CCC(=O)NC5=O)c4Cl)ccc32)c1=O` (centres unmarked) [Compound 509, 3-(2-chloro-3-(1-(1-methyl-2-oxo-1,2-dihydropyridin-3-yl)indolin-5-yl)phenyl)piperidine-2,6-dione] are 97.8%, over 90%, 3.85 nM and at most 100 nM.
In the same order, the values of `Cn1ccc(Cc2noc3cc(-c4cccc(C5CCC(=O)NC5=O)c4Cl)ccc23)n1` (centres unmarked) [Compound 510, 3-(2-chloro-3-(3-((1-methyl-1H-pyrazol-3-yl)methyl)benzo[d]isoxazol-6-yl)phenyl)piperidine-2,6-dione] are 89.2%, 60 to 90%, 78.6 nM and at most 100 nM.
